Assay results from patent US8163788B2, “Low-molecular inhibitors of cytohesin-family guanine nucleotide exchange factors” (Rheinische Friedrich-Wilhelms Universitat Bonn, priority 2004, dated 2012).
Like-named read-outs stand apart in the source and are kept apart here.

Columns and labels:
[1] = target: T1, sec7-domain of Gea2 (Saccharomyces cerevisiae, UniProt P39993); assay: GDP/GTP exchange on NΔ17-ARF1 catalysed by sec7-domain (tryptophan fluorescence); assay type: biochemical
T1 construct: 1 μM of the purified sec7-domain of cytohesin-1, cytohesin-2 and Gea2; made in house; host or cells: E. coli BL21DE3
Description: (§1) The IC50 value for the inhibition of the exchange activity of the sec7-domains of various guanine nucleotide exchange factors of the compounds (9), (10), (11), (12), (14) and (19) was determined.
(§2) For this purpose, the sec7-domains of cytohesin-1, cytohesin-2 and Gea2 as well as the NΔ 17-ARF 1, a mutant of the ARF protein, recombinantly expressed in E. coli BL21DE3, were purified by means of a standard method and used as catalysts for the exchange from GDP to GTP in GTPases of the family of the ADP ribosylation factors. The exchange from GDP to GTP induces a conformation change of the ribosylation factor, as a result of which the fluorescence of a tryptophan radical of the protein is increased.
(§3) In 50 mM of HEPES, pH 7.4, 120 mM of KCl, 1 mM of MgCl2, 45 μM of GTP S, the compounds (9), (10), (11), (12), (14) and (19), each in concentrations of 1 μM to 30 μM, were added to 1 μM NΔ 17-ARF1 and, in each case, 1 μM of the purified sec7-domain of cytohesin-1, cytohesin-2 and Gea2, and the fluorescence was measured in a Varioskan, Thermo LifeSciences Inc., at the following wavelengths: excitation: 275 nm, emission 340 nm.
(§4) The IC50 value can be determined by plotting the initial rise of the fluorescence signal against the added concentrations of the compounds. The IC50 value corresponds to the concentration of the compounds at which the activity of the protein is reduced to half. […] Brefeldin A, a specific inhibitor of the […] Gea2 served as the control.

[2] = target: T2, sec7-domain of cytohesin-1 (Homo sapiens, UniProt Q15438); assay: as above; assay type: biochemical; conditions: 1 μM NΔ17-ARF1, 1 μM sec7-domain, compounds 1 μM to 30 μM
T2 construct: central sec7-domain, corresponding to the amino acids 62-244 in cytohesin-1; made in house; host or cells: E. coli BL21DE3
T2 sequence (Q15438 62-244): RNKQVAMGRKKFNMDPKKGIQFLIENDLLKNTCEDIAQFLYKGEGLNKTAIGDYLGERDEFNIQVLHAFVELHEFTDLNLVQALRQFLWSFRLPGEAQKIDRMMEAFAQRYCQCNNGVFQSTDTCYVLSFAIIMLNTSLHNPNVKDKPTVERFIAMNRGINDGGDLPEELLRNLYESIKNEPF
Description: as §1, §2, §3, §4

[3] = tested on: sec7-domain of cytohesin-1; assay: as above; assay type: biochemical; conditions: conclusion in words from Table 1
Description: as §1, §2, §3, §4

[4] = target: T3, sec7-domain of cytohesin-2 (Homo sapiens, UniProt Q99418); assay: as above; assay type: biochemical; conditions: 1 μM NΔ17-ARF1, 1 μM sec7-domain, compounds 1 μM to 30 μM
T3 construct: 1 μM of the purified sec7-domain of cytohesin-1, cytohesin-2 and Gea2; made in house; host or cells: E. coli BL21DE3
T3 sequence (Q99418 72-201 limits assumed): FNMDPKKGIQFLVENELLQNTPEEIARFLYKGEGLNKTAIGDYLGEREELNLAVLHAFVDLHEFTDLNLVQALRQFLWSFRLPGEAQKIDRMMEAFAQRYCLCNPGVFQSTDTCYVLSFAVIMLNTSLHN
Description: as §1, §2, §3, §4

[5] = tested on: cytohesin-2; assay: luciferase assay in HeLa-cells (serum response element activation, MAPK path via cytohesin-2); assay type: cell-based; conditions: compounds 1 μM to 50 μM, read-out: IC50 (luciferase signal)
Description: The IC50 value was determined in comparison to the LC50 value in a luciferase assay in HeLa-cells, corresponding to the test conditions described in Theis, M. G. et al., Proc Natl Acad Sci USA, 101, 11221-26 (2004). The stimulation of receptor tyrosine kinases by means of growth factors contained in fetal calf serum activates the MAPK path via cytohesin-2 and results in an activation of the serum response element. This activation manifests itself in the quantity of luciferase produced in the cells.
Compounds (9), (10), (11), (12), (14) and (19) were each added in concentrations of 1 μM to 50 μM to 6.5×10^4 HeLa-cells.
The IC50 value was determined from the plotting of the concentration of the compound against the intensity of the luciferase signal.

[6] = MTT assay (LC50) in HeLa-cells; assay type: cell-based; conditions: human, after 24 hours
Description: The LC50 values were determined by an MTT assay according to a standard method.
The LC50 value describes the lethal concentration at which […] died within 24 hours after a one-time administration.

[7] = tested on: human peripheral blood cells (PBL); assay: adhesion of human peripheral blood cells (PBL) to ICAM-1 after stimulation with OKT3 or PMA; assay type: cell-based; conditions: stimulation with OKT3; FIG. 2
Excerpt: Human peripheral blood cells (PBL) were stimulated with agonists that activate a beta-2 integrin-dependent adhesion. In these primary human lymphocytes, the beta-2 integrin-dependent adhesion can be activated by cytohesins at the specific ligands ICAM-1.
The agonists employed were the monoclonal antibody OKT3 (hybridome of ATCC, mAb OKT3 purified on protein A, according to standard methods from Current Protocols in Immunology, 5th Ed., Coligan et al., Edts, Wiley 2004) against the CD3 complex, a T-cell receptor and phorbolester (PMA), which non-physiologically activates intracellular signal cascades in human PBL including integrin-dependent adhesion while circumventing cytohesins.
Cells from human blood were isolated according to standard methods (Current Protocols in Immunology, 5th Ed., 2004, Coligan et al., Edts, Wiley). Cell culture dishes coated with ICAM-1 were produced by means of recombinant ICAM-1-Fc fusion protein (Kolanus, W. et al., Cell 86, 233-42 (1996), Geiger, C. et al., EMBO J., 19, 2525-2536 (2000)). 300,000 human peripheral blood cells (PBL) were stimulated for 30 minutes with 2 μg/ml of OKT3 or 40 ng/ml of phorbolester (PMA) in Hank's BSS, (Gibco; composition (g/l): CaCl2x2H2O (0.185), KCl (0.4), KH2PO4 (0.06), MgCl2x6H2O (0.1), MgSO4x7H2O (0.1), NaCl (8.0), NaHCO3 (0.35), Na2HPO4 (0.048), D-glucose (1.0)), and placed for one hour in Hank's BSS onto the ICAM-1 coated cell culture dishes, whereby the agonists were not removed. Non-bound cells were removed by washing with Hank's BSS. The percentage of bound cells was determined by counting under a microscope using a standard counting grid.

T1 sequence (P39993 570-714): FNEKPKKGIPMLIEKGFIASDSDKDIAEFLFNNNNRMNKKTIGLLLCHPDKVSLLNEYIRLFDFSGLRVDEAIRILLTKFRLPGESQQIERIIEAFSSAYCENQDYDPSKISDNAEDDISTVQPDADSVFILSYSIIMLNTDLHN

With `C[C@H]1CCC/C=C/[C@@H]2C[C@H](O)C[C@H]2[C@H](O)/C=C/C(=O)O1` [Brefeldin A, reference compound] the IC50 ([1]; 1 μM NΔ17-ARF1, 1 μM sec7-domain, compounds 1 μM to 30 μM, read-out: IC50 Gea2-sec7) was 23 ± 1 µM, the IC50 [2] was > 150 µM and the “specificity of inhibition of sec7-domains (cytohesins vis-à-vis Gea2)” value [3] was “specific inhibition of the sec7-domain of Gea2”. For the same compound, the IC50 [4] was > 150 µM.
In the case of `CCOc1nc(-c2cccc(F)c2)n(-c2ccc(NC(=O)Cc3cccs3)cc2)n1` [Compound 10], the IC50 [1] is reported as 67 ± 5 µM, the IC50 [2] is reported as 12.6 ± 0.3 µM and the “specificity of inhibition of sec7-domains (cytohesins vis-à-vis Gea2)” value [3] is reported as “specific inhibition of the sec7-domains of the cytohesins”. For the same compound, the IC50 [4] was 16.1 ± 0.9 µM, the IC50 [5] was 23 ± 5 µM and the CC50 at 24 h [6] was > 150 µM.
With `CCOc1nc(-c2ccccc2F)n(-c2ccc(NC(=O)CSc3ccccc3)cc2)n1` [Compound 11] the IC50 [1] was 42 ± 4 µM, the IC50 [2] was 8.8 ± 0.3 µM and the “specificity of inhibition of sec7-domains (cytohesins vis-à-vis Gea2)” value [3] was “specific inhibition of the sec7-domains of the cytohesins”. The IC50 [4] was 12.4 ± 0.3 µM, the IC50 [5] was 5 ± 1.5 µM and the CC50 at 24 h [6] was 142 ± 12 µM.
In the case of `CN(c1cc(Cl)nc(SCc2ccc(C(=O)NCc3ccco3)cc2)n1)C1CCCCC1` [Compound 12], the IC50 [1] is reported as 22 ± 2 µM, the IC50 [2] is reported as 8 ± 0.3 µM and the “specificity of inhibition of sec7-domains (cytohesins vis-à-vis Gea2)” value [3] is reported as “specific inhibition of the sec7-domains of the cytohesins”. The IC50 [4] was 19.5 ± 0.3 µM, the IC50 [5] was 5 ± 1.5 µM and the CC50 at 24 h [6] was > 150 µM.
In the case of `O=C(CN(CC1CCCO1)C(=O)Cc1cccs1)N(Cc1ccc(F)cc1)Cc1ccco1` (stereo not shown) [Compound 14], the IC50 [2] is reported as 14.8 ± 0.3 µM, the “specificity of inhibition of sec7-domains (cytohesins vis-à-vis Gea2)” value [3] is reported as “specific inhibition of the sec7-domains of the cytohesins” and the IC50 [4] is reported as 19.3 ± 0.3 µM. For the same compound, the IC50 [5] was 3 ± 1 µM.
For `O=C(O)[C@H]1CSCN1C(=O)Cc1cccs1` [Compound 19], the IC50 [2] was 15 ± 0.3 µM, the “specificity of inhibition of sec7-domains (cytohesins vis-à-vis Gea2)” value [3] was “specific inhibition of the sec7-domains of the cytohesins” and the IC50 [4] was 20 ± 0.6 µM. The IC50 [5] was 3.5 ± 0.5 µM and the CC50 at 24 h [6] was > 150 µM.
In the case of `CC(C)(C)c1ccc(S(=O)(=O)N(Cc2ccc(OS(C)(=O)=O)cc2)CC2CCCO2)cc1` (stereo not shown) [Control 1, reference compound], the IC50 [5] is reported as > 50 µM and the CC50 at 24 h [6] is reported as > 150 µM.
In the case of `CCOCCCN(Cc1nc(C(=O)NCCCOCO)co1)C(=O)c1ccccc1Br` [Control 2, reference compound], the “effect on OKT3-mediated adhesion in primary human lymphocytes” value [7] is reported as “no effect”.
